From patent US20160303113A1 (LAGUNA PHARMACEUTICALS ,INC., priority 2013, published 2016)

Experiments:
[1] = Example 2: daily doses of vanoxerine for 11 consecutive days, PK and hemodynamics; format: in vivo, human
[2] = Pharmacokinetic parameters from tests in dogs; format: in vivo, dog
From the text: Vanoxerine is primarily eliminated from the body in urine, bile, and feces. Indeed, a substantial amount of the drug is expelled, unabsorbed into the feces. […] However, the long half-life of the drug may actually be utilized to minimize the continuous or regular dosing of the drug.

[3] = Example 3: daily vanoxerine for 14 days in healthy patients; format: in vivo, human
Procedure: A standardized meal was served 15 minutes prior to each dosing.

[4] = Example 4: daily vanoxerine for 7 days; format: in vivo, human
[5] = tested on: atrial fibrillation/atrial flutter; assay: Example 6: placebo-controlled study of conversion of recent onset symptomatic AF/AFL to sinus rhythm; format: in vivo, human
Procedure: The vanoxerine or identical appearing placebo was randomly assigned and administered in a double-blinded fashion.
Definition of “pure” atrial flutter: only Atrial Flutter (no AF) seen at −30, −15, and 0 time points. Conversion at any time within 24 hours.

[6] = healthy subjects; cited from earlier work

Fc1ccc(C(OCCN2CCN(CCCc3ccccc3)CC2)c2ccc(F)cc2)cc1 [Vanoxerine, 1-[2-[bis(4-fluorophenyl)methoxy]ethyl]-4-(3-phenylpropyl)piperazine]
steady state reached ([1]; 50, 75 and 100 mg daily doses): ≤ 8 days | plasma levels at 24 hours ([1]; 50, 75 and 100 mg doses): detectable | elimination from the plasma T112 [2]: 22 h | adverse events ([3]; 25, 75, 125 mg daily for 14 days, healthy patients, after standardized meal): No significant adverse events | all patients achieved steady state after ([3]; repetitive dosing, all patients): 7 to 10 days | systolic blood pressure and heart rate ([4]; 100 mg daily for 7 days): increases | systolic blood pressure and heart rate ([4]; 150 mg daily for 7 days): increases | Steady-state levels achieved ([4]; 50, 100, 150 mg daily for 7 days, all patients): within one week | Adverse events: number of AEs reported ([5]; 200 mg (22)): reporting 8 AEs | Adverse events: number of SAEs ([5]; 200 mg (22)): (1 SAE) | Adverse events: subjects reporting AEs, N (%) ([5]; 200 mg (22)): 4 (18%) subjects | Adverse events: number of AEs reported ([5]; 300 mg (25)): reporting 12 AEs | Adverse events: subjects reporting AEs, N (%) ([5]; 300 mg (25)): 7 (28%) subjects | Adverse events: number of AEs reported ([5]; 400 mg (25)): reporting 23 AEs | Adverse events: number of SAEs ([5]; 400 mg (25)): AEs (1 SAE) | Adverse events: subjects reporting AEs, N (%) ([5]; 400 mg (25)): 10 (40%) subjects | tolerability ([5]; all doses (200, 300, 400 mg)): well tolerated at all doses | conversion to sinus rhythm of recent onset symptomatic AF/AFL, dose dependence ([5]; doses of 200, 300 and 400 mg): highly statistically significant dose dependent increase | relation of the two serious adverse events to study drug ([5]; one at 200 mg (upper respiratory infection), one at 400 mg (lower extremity edema secondary to amlodipine)): neither related to the study drug | effects at higher doses (concentration difficulties, increase systolic blood pressure, asthenia, feeling of drug influence) [6]: some effects were seen
